Measured values taken from PubChem BioAssay AID179 (DTP/NCI, 2004).
The source made the active and inactive calls.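 How the source made its calls: active means compounds giving half or more protection of infected cells from virus-caused growth loss, again on retest; inactive means the rest.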 Where a SMILES comes first, the peptide text is derived from it. The star is where a group is joined. Boc = CC(C)(C)OC(=O)*

System: CEM cells HIV-1 protection, formazan growth assay
Assay: NCI AIDS Antiviral Assay
Conditions: for IC50: measured here: growth of uninfected CEM cells
Procedure, shortened: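 Protection of CEM cells against HIV-1 measured as cell growth via soluble formazan read-out, with five concentrations tested on both infected and uninfected cells; failure to protect may reflect toxicity.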

Row | Structure (SMILES) | EC50 | IC50 | outcome
1 | N#Cc1nc(CSCc2ccccc2)oc1N | > 200 µM | 117 µM | –
2 | C=C1SC(=Nc2cccc(OC)c2)N(c2nc(Cl)nc(Cl)n2)C12CCCCC2 | > 155 µM | 52.5 µM | –
3 | O=c1[nH]c(=O)n(C2C=CC(CO)O2)cc1F (configuration not stated) | > 200 µM | > 200 µM | –
4 | CCc1c(O)c(O)c(C(C)=O)c2c(O)c(-c3c(C)cc4c(CC)c(O)c(O)c(C(C)=O)c4c3O)c(C)cc12 | > 69.2 µM | 2.24 µM | –
5 | N#Cc1c(-c2ccc(Cl)cc2)c2c(n(C3OC(CO)C(O)C(O)C3O)c1=S)CCCC2 (configuration not stated) | > 200 µM | 69.2 µM | –
6 | CC(CCC(=O)O)C1CCC2C3C(O)CC4CC(O)CCC4(C)C3CC(O)C12C (configuration not stated) (tested in a mixture with another compound) | > 200 µM | > 200 µM | –
7 | COC(=O)C1CC2(c3ccccc3)C(=O)c3ccccc3N2O1 (configuration not stated) | – | – | inactive
8 | CCOc1ccc(N=C2NC(=O)C(CC(=O)Nc3ccccc3[N+](=O)[O-])S2)cc1 (configuration not stated) | > 316 µM | > 316 µM | –
9 | O=S(=O)(c1ccccc1)C(Cl)c1cccc(Cl)c1 (configuration not stated) | > 63.1 µM | > 63.1 µM | –
10 | CC(=O)C(C=NCCN=CC(C(C)=O)C(C)=O)C(C)=O.[Ni] | > 200 µM | > 200 µM | –
11 | O=C1c2c(nc3ccccc3c2-c2ccccc2)CN1Nc1ccccn1 | > 141 µM | > 141 µM | –
12 | Cc1ccc2cc(NC(=O)CBr)c3ccc(C)nc3c2n1 | > 2 µM | 0.955 µM | –
13 | O=C(O)CCCCCCCC(O)C(O)CCCCCCCC(=O)O (configuration not stated) | > 195 µM | > 195 µM | –
14 | CC(O)c1nc2c3ccccc3ccc2n1C (configuration not stated) | > 776 µM | 389 µM | –
15 | Cc1coc2c1[C@@H](O)[C@@]1(C)[C@H](CCC[C@@H]1C)C2 | > 200 µM | 35.5 µM | –
16 | Cc1cc(C2(c3ccc(O)c(C)c3)OS(=O)(=O)c3ccccc32)ccc1O | – | – | inactive
17 | CCOP(=O)(OCC)OC1C=CC2CCC1C2 (configuration not stated) | > 191 µM | > 191 µM | –
18 | CCOC(=O)c1ccc(Nc2cnc3cc(C(F)(F)F)ccc3n2)cc1 | > 200 µM | 141 µM | –
19 | O=C(CN1CCN(Cc2ccccc2)CC1)c1ccc2[nH]c(=O)oc2c1 | > 200 µM | 158 µM | –
20 | CC/C=C(\C)C(CCC)(CN=O)C(=O)OCC (configuration not stated) | – | – | inactive
21 | CC(C)(C)OC(=O)N/N=C(/N)c1ccccc1 | > 200 µM | > 200 µM | –
22 | CC1(C)CC(/C=C2/OC(=O)c3ccccc32)=C(C(N)=O)C(=O)O1 | > 83.2 µM | > 83.2 µM | –

Row | Structure (SMILES) | EC50 | IC50 | outcome
23 | CC(C)(C)OC(=O)NC(Cc1ccc(O)cc1)C(=O)N1CCCC1C(=O)O (stereo not drawn) (Boc-Tyr-Pro-OH; configuration not given here) | > 661 µM | 269 µM | –
24 | CC1=Nc2ccccc2NC2(C1)C(C1COC(C)(C)O1)OC1OC(C)(C)OC12 (configuration not stated) | – | – | inactive
25 | CC(=O)N1c2ccccc2C2=NN=C(N(C)C)SC21 (configuration not stated) | – | – | inactive
26 | CCOC(=O)C(C(=O)c1ccccc1-c1ccccc1C(=O)O)=P(c1ccccc1)(c1ccccc1)c1ccccc1 | > 229 µM | 43.7 µM | –
27 | N#CCCC(C#N)(C#N)CCC#N | > 759 µM | > 759 µM | –
28 | CCOC(=O)c1[nH]n(-c2ccccc2)c(=O)c1/C=N/C(=S)NCc1ccccc1 | > 200 µM | 44.7 µM | –
29 | Cn1c(CC(O)(C(F)(F)F)C(F)(F)F)c(C(O)(C(F)(F)F)C(F)(F)F)c2ccccc21 | > 200 µM | 3.39 µM | –
30 | CC(C)(C)OC(=O)NC(Cc1ccc(OC(C)(C)C)cc1)C(=O)N[C@H]1CCC[C@H]1C(=O)NC(Cc1ccccc1)C(=O)N1CCCC1C(N)=O (some centres not stated) | > 100 µM | > 100 µM | –
31 | O=C(O)c1ccc(C(=O)O)c(C(=O)c2cc(C(=O)O)ccc2C(=O)O)c1 | > 162 µM | 61.7 µM | –
32 | COc1ccc(/C(=N/Nc2nc3ccccc3n2Cc2ccccc2)C(=O)O)cc1 | > 200 µM | 4.27 µM | –
33 | COc1ccc2nc3cccc([N+](=O)[O-])c3c(NCCC(=O)O)c2c1 | > 200 µM | 4.57 µM | –
34 | CCOC(=O)CN1C(=O)c2ccc(NC(=O)C(=O)O)cc2S1(=O)=O | > 200 µM | > 200 µM | –
35 | O=c1n(-c2ccccc2)c(=O)n(-c2ccccc2)c(=O)n1-c1ccccc1 | > 200 µM | > 200 µM | –
36 | N#CN=C(N)N | – | – | inactive
37 | CCOC(=O)c1ccc(CSc2ccccc2)cc1 | > 26.3 µM | > 26.3 µM | –
38 | O=c1oc2c3ccc4ccccc4c3n(Cc3nc4ccccc4[nH]3)c2c2ccccc12 | > 8.32 µM | 4.68 µM | –
39 | C=CCC1C(O[Si](C)(C)C(C)(C)C)C(CO[Si](C)(C)C(C)(C)C)OC1n1ccc(=O)[nH]c1=O (configuration not stated) | > 200 µM | 2.75 µM | –
40 | CN(C)CCNS(=O)(=O)c1ccc(N)cc1 | > 200 µM | > 200 µM | –
41 | COC(=O)[C@@H]1C[C@]2(Br)c3ccccc3N(S(=O)(=O)c3ccccc3)[C@@H]2N1C(=O)OC | > 200 µM | 138 µM | –
42 | O/N=C1\CSc2ccccc2C1 | > 200 µM | > 200 µM | –
43 | CC(=O)OC1CCC2(C)C(CCC3C4CCC(C(C)OC(C)=O)C4NC(=O)CC32)C1 (configuration not stated) | – | – | inactive
44 | O=C(O)CCC(NC(=O)c1ccc(Nc2nc3ccccc3nc2C(=O)O)cc1)C(=O)O (configuration not stated) | > 200 µM | > 200 µM | –

Row | Structure (SMILES) | EC50 | IC50 | outcome
45 | CCOC1NC(=O)c2ccccc21 (configuration not stated) | – | > 200 µM | inactive
46 | COc1cc(-c2cc(=O)c3c(O)c(OC)c(OC)c(OC)c3o2)ccc1O | > 132 µM | 9.33 µM | –
47 | COC1C(O)C(n2ccc(=O)[nH]c2=O)OC1[C@@H](O[C@H]1OC(C(=O)NC2CCCCNC2=O)=CC(O)C1O)C(N)=O (some centres not stated) | – | – | inactive
48 | COc1c2occc2c(N=Cc2ccncc2)c2ccc(=O)oc12 | > 39.8 µM | > 39.8 µM | –
49 | CCCC[C@@H](C)/C=C1\CN2CCC[C@H]2[C@@](C)(O)[C@@H]1O | > 200 µM | 75.9 µM | –
50 | COc1ccc(C(=O)/C=C/c2ccc(OCCSCCCCCCCCCCSCCOc3ccc(/C=C/C(=O)c4ccc(OC)cc4)cc3)cc2)cc1 | > 200 µM | > 200 µM | –
51 | O=C(NC1=Nc2c(ncn2COCCO)S(=O)(=O)[N-]1)c1ccccc1.[Ag+] | > 200 µM | 3.55 µM | –
52 | NC(=O)CC(N)C(=O)NC(Cc1ccccc1)C(=O)NC(Cc1ccccc1)NC(=O)C(Cc1c[nH]c2ccccc12)C(=O)O (configuration not stated) | > 200 µM | > 200 µM | –
53 | Cc1cc(C)c2c(c1C)CN1CN2Cc2c(C)c(C)cc(C)c21 | – | – | inactive
54 | CCN(CC)Cc1cc(Nc2ccnc3ccc4nn(C)nc4c23)ccc1O | > 603 µM | 15.8 µM | –
55 | CN(/N=C/c1ccccn1)C1=NCCCN1 | > 200 µM | > 200 µM | –
56 | N#CC(C#N)=Cc1cccc(Cl)c1 | > 117 µM | 22.4 µM | –
57 | O=c1n(-c2ccccc2)c(=O)n2n1C1Cc3ccccc3C12 (configuration not stated) | – | – | inactive
58 | CO[C@@H]1[C@@H](OC2OC(C)C(OC3CC(C)(O)C(OC(=O)CC(C)C)C(C)O3)C(N(C)C)C2O)[C@@H](CC=O)C[C@@H](C)C(=O)/C=C/C2O[C@H]2C[C@@H](C)OC(=O)C[C@H]1OC(C)=O (some centres not stated) | > 148 µM | 7.76 µM | –
59 | NC(=O)C(=O)CC(=O)c1ccccc1NC1=CC(=O)C(=O)c2ccccc21 | > 20 µM | > 20 µM | –
60 | Cc1nc(-c2nc(C)c(C(=O)NN(C)C)s2)sc1C(=O)NN(C)C | > 70.8 µM | > 70.8 µM | –
61 | COc1cccc2c1C(=O)c1c(O)c3c(c(O)c1C2=O)C[C@@](O)(C(C)=O)C[C@@H]3OC1CC(N(C)C)C(O)C(C)O1 (some centres not stated) | – | – | inactive
62 | Nc1nc2cc[nH]c2c(=O)[nH]1 | > 661 µM | > 661 µM | –
63 | COc1cc2c(cc1OC)C(CCl)c1cc(OC)c(OC)cc1C=C2 | > 100 µM | > 100 µM | –
64 | CC(C)(NO)/C(=N\O)c1ccco1 | > 200 µM | > 200 µM | –
65 | N#C/C(=C\c1ccc(O)c(O)c1)C(=O)NCN1CCN(C(=O)/C(C#N)=C/c2ccc(O)c(O)c2)CC1 | > 200 µM | 19.1 µM | –
66 | COC(=O)C1=C(C)N[C@@]2(C)[C@H](C(=O)OC)C[C@H]1C2(C(C)=O)C(C)=O | > 200 µM | > 200 µM | –

Row | Structure (SMILES) | EC50 | IC50 | outcome
67 | CCOc1ccc2c(C)cc(=O)oc2c1 | > 66.1 µM | > 66.1 µM | –
68 | COc1ccc(C(O)/C(=N/N)c2nc3ccc(Cl)cc3[nH]c2=O)cc1 (configuration not stated) | > 263 µM | 251 µM | –
69 | CC1=CC(C)(C)N=C2SC(COc3ccccc3)=NN12 | > 200 µM | 34.7 µM | –
70 | O=C(O)c1c2c(cc3c(=O)c4ccccc4[nH]c13)CCCC2 | > 617 µM | 85.1 µM | –
71 | CS(=O)(=O)OC[C@@H]1OCO[C@H]1COS(C)(=O)=O | > 200 µM | > 200 µM | –
72 | O=C(OCc1ccccc1)/C(c1ccccc1)=[N+]1/C(=S)Nc2ccc([N+](=O)[O-])cc21 | > 200 µM | 105 µM | –
73 | CNc1[nH]c(=S)nc2sc3c(c12)CCCC3 | > 151 µM | 112 µM | –
74 | Cc1ccc2[nH]c3[nH]c(=O)[nH]c(=O)c3c2c1 | > 200 µM | > 200 µM | –
75 | CN(C)c1cc2c3c(c1)CCCN3CCC2 | > 200 µM | 11.5 µM | –
76 | CC(CS(=O)(=O)O)NC(CO)(CO)CO (configuration not stated) | > 200 µM | > 200 µM | –
77 | CN1CCN(c2[nH]c(=O)n(-c3ccccc3)c(=S)c2C#N)CC1 | > 200 µM | > 200 µM | –
78 | CC(C)(C)N1C(=O)c2ccccc2C1(O)C(F)(F)F (configuration not stated) | > 200 µM | 135 µM | –
79 | N.N.N.N.N.NC(=O)c1nn[n-]n1.[Cl-].[Co+3] | > 759 µM | > 759 µM | –
80 | CCOC(=O)c1cc2c3c(c1)C(=O)C(C)CN3CC(C)C2=O (configuration not stated) | – | – | inactive
81 | S=C(NCCc1ccccn1)N/N=C/c1ccccn1 | > 2 µM | 0.0257 µM | –
82 | O=c1c2ccccc2nnn1N1CCOCC1 | > 81.3 µM | > 81.3 µM | –
83 | CC1Nc2ccccc2NC1C=C(C#N)C#N (configuration not stated) | > 44.7 µM | 6.76 µM | –
84 | CCC1CN2CCc3c([nH]c4ccccc34)C2C[C@@H]1CC(=O)N(C)C (some centres not stated) | > 148 µM | > 148 µM | –
85 | CCN(CC)CCN(C(=Nc1ccccc1)N1CCCCC1)c1ccccc1 | > 200 µM | 1.29 µM | –
86 | O=C(/N=N/C(=O)N1CCCCC1)N1CCCCC1 | > 67.6 µM | 28.8 µM | –
87 | CC1=NN(C(=O)CC(=O)Nc2ccc(C)cc2)C(=O)C1N=Nc1ccc(S(=O)(=O)c2ccc(N=NC3C(=O)N(C(=O)CC(=O)Nc4ccc(C)cc4)N=C3C)cc2)cc1 (configuration not stated) | > 50.1 µM | > 50.1 µM | –
